The values that follow are results of earlier work, collected in article PMC5809414, “Physician-initiated clinical study of limb ulcers treated with a functional peptide, SR-0379: from discovery to a randomized, double-blind, placebo-controlled trial” (NPJ Aging and Mechanisms of Disease, 2018).

The data set deals with venous leg ulcers. The following applies: cited from earlier work. From the text: Recently, another anti-microbial peptide, LL-37, was similarly evaluated for venous leg ulcers.[26] The study design consisted of a 4-week randomized double-blind t ...

Like-named read-outs stand apart in the source and are kept apart here.

On to LL-37, for which the healing rate constants result (0.5 mg/mL LL-37, 4-week treatment, p = 0.003 vs placebo) was “higher than those for placebo” and the healing rate constants result (1.6 mg/mL LL-37, 4-week treatment, p = 0.088 vs placebo) is reported as “higher than those for placebo”.
